# Measured values reported in patent US7300947B2, “N-dihydroxyalkyl-substituted 2-oxo-imidazole derivatives” (Banyu Pharmaceutical Co., Ltd., priority 2005, dated 2007).
# Structures can show the parent of a compound that is named as a salt.
# Test: Metabolic stability test using human liver microsome
# Type: in vitro ADME
# Details: human liver microsome 0.25 mg protein/mL, 1 μM test compound, 37° C., after 30 minutes' reaction
# Method: Pharmacological Test Example 3 (Metabolic Stability Test) Metabolic stability of test compounds was examined using human liver microsome. A 100 mM potassium phosphate buffer (pH 7.4) comprising 10 mM [MUT], 1.0 mM NADP^+, 10 units/mL [MUT] DH, 3.0 mM MgCl2 and 0.25 mg protein/mL of human liver microsome was prepared, each 392 μL of which was poured into plural vessels and preincubated at 37° C. for 5 minutes. […] At the initiation time and 30 minutes thereafter of the reaction, 150 μL of each reaction solution was added to 450 μL of ethanol to suspend the reaction, followed by centrifugal separation (12,000 g, 12 minutes, 4° C.). Resulting supernatant was analyzed with LC/MS/MS. Based on the peak area of the test compound in each sample at the initiating time of the reaction as 100%, the test compound's residual ratio in the sample after 30 minutes' reaction was calculated. Residual ratio(%)= [peak area(after 30 minutes' reaction)/ peak area(0 minute's reaction)]×100.
smiles,measurement,value
"CC(O)(CO)Cn1c(=O)n(C2CCN(CC3CCCCC34CC4)CC2)c2ccccc21 (single isomer, unassigned) [Example 4, 1-[(2S or 2R)-2,3-dihydroxy-2-methylpropyl]-3-{1-[(4S)-spiro[2.5]oct-4-ylmethyl]piperidin-4-yl}-1,3-dihydro-2H-benzimidazol-2-one(2R,3R)-3-carboxy-2,3-dihydroxypropionic acid salt]",Residual Ratio,72%
